Values of other authors as cited in publication PMC7511286 (European Journal of Drug Metabolism and Pharmacokinetics, 2020).

What was measured:
[1] = free acid, multiple-dose phase 1 study; cited from earlier work
[2] = hepatocytes across different species; ref data on file; cited from earlier work
CYP2C8 = settings: human liver microsomes, recombinant enzymes; ref data on file; cited from earlier work
CYP2C9 = settings: human liver microsomes, recombinant enzymes; ref data on file; cited from earlier work
[3] = tested on: human mitochondrial enzyme dihydroorotate dehydrogenase (DHODH); settings: cited from earlier work
stimulated immune cells = settings: cited from earlier work

SMILES: COc1cccc(-c2ccc(NC(=O)C3=C(C(=O)O)CCC3)c(F)c2)c1 [vidofludimus]
- daily dose at which cases of hematuria occurred [1]: 70 mg
- number of metabolites identified [2]: eight
- contribution of CYP isoform to metabolism (CYP2C8): predominant hepatic CYP isoform
- contribution of CYP isoform to metabolism (CYP2C9): smaller contributions
- inhibition of DHODH [3]: potent and selective inhibitor
- inhibition of IL-17 and IFN-γ release (stimulated immune cells): very potent inhibitor
